Assay results from paper PMC8880588, “In-Silico Screening of Novel Synthesized Thienopyrimidines Targeting Fms Related Receptor Tyrosine Kinase-3 and Their In-Vitro Biological Evaluation” (Pharmaceuticals, 2022).

What was measured:
[1] = system: HT-29 cells; experiment: Preliminary antiproliferative assessment (MTT) at 10 and 100 μM; format: cell-based, human; details: for growth inhibitory activities against HT-29 cells (preliminary assay): 10 and 100 μM, 72 h; for cytotoxic profile: result in words
Procedure: All synthesized compounds were subjected to preliminary antiproliferative assessment that was performed on HT-29 cells using concentrations 10 and 100 μM of synthesized compounds for 72 h and the percentage of cell viability was then calculated. […] Thus, all five compounds were further studied by a detailed dose–response relationship against three different cancerous cell lines HT-29, Hep-G2 and MCF-7.
(§1) Three cancer cell lines were used in the antiproliferative activities experiments, namely, breast cancer cell line (MCF-7) and human hepatoma cell line (HepG-2), and Colorectal cell line (HT-29). The source of cell lines is the health sciences research center-core lab- at princess Nou-rah bint Abdulrahman university. All cell lines were maintained in their optimum media (RPMI-1640 or DMEM) supplemented with 10% fetal bovine serum, 100 U/mL penicillin, and 100 μg/mL streptomycin and incubated in a humidified atmosphere at 37 °C with 5% CO2.
(§2) The MTT assay was used to evaluate the anti-proliferative effect of the synthesized compounds against three human cancer cell lines hepatocellular carcinoma (HepG-2), breast cancer (MCF-7) and Colorectal carcinoma (HT-29). For the preliminary screening, HT-29 cells were seeded in 96-well plates (Thermo Scientific, Waltham, MA, USA)(10^3 cells/well) and incubated for 24 h before the treatment. Then, cells were treated with two concentrations (10 and 100 µM) of the tested compounds for 72 h. After the exposure, MTT assay protocol was performed as described. After evaluation of the preliminary anticancer activity, the promising synthesized compounds (8, 9a, 9b, 10a, and 11) were selected and examined against three cell lines (HepG-2, MCF-7, and HT-29). Cells were exposed to serial concentration ([…]) of the selected compounds and dose–response curves were determined to calculate their IC50 values.

[2] = system: normal colon epithelial cells (CCD 841 CoN); experiment: Selectivity assay (MTT) on non-cancerous cells; format: cell-based; details: for IC50: Homo sapiens, CCD 841 CoN, 72 h, MTT, read-out: IC50 of Non-Cancer Cells CCD 841; for Selectivity Index (SI) (IC50 of CCD 841/IC50 of HT29): ratio normal CCD 841 / cancer HT-29, 72 h
Procedure: In an attempt to evaluate the anticancer activity of the compounds, selectivity assay was performed and compounds’ selectivity to malignant cells was determined, reflected by their selectivity index. The selectivity index (SI) was calculated by the ratio of the IC50 value of the selected compounds on normal colon epithelial cells (CCD 841 CoN) to the IC50 value of the compounds on cancer cells (HT-29). […] However, based on the designed strategy, this high selectivity towards cancer cells may be attributed to their ability to target oncogenic kinases.
Cells were plated in 96-well plates (10^3 cells/well), and after 24 h, the compounds in concentrations (0.1 to 100 μM) were incubated for 72 h. MTT procedure was then performed, the ratio of IC50 values of the compounds on non-cancerous cells (CCD 841 CoN) to the IC50 values of the compounds on cancer cells (HT-29) was determined as reported, [23, 24] using the following equation, SI = IC50 of normal cells/IC50 of cancer cells.

[3] = system: MCF-7; experiment: MTT dose-response anti-proliferative assay, MCF-7; format: cell-based, human
Source text: (§3) Doxorubicin was used as a positive reference for the comparison of anticancer activities. The results are tabulated as IC50 value in the μM range, Table 1.
as §1, §2

[4] = system: HT-29; experiment: MTT dose-response anti-proliferative assay, HT-29; format: cell-based; details: Homo sapiens; HT-29, MTT
Source text: as §3, §1, §2

[5] = system: protein kinases extracted from HT-29 cell line; experiment: Kinase inhibition assessment, single dose, ADP-Glo assay; format: biochemical, human; details: 20 μM single dose, total intracellular kinases from HT-29, 45 min
Procedure: Inhibitory activity against kinases of the selected compounds was examined using homogeneous protein kinases extracted from HT-29 cell line. The screening assay was performed in a single dose concentration (20 μM) by using ADP-Glo assay (Promega, Madison, WI, USA).
Briefly, protein kinases were added into a 96-well plate followed by addition of the synthesized compounds at the tested dose (20 μM). After 45 min of exposure, kinase activity was assessed using a luminescent luciferase/luciferin reaction. Luminescence quantification was measured by using a Varioskan™ LUX multimode microplate reader (Thermo Scientific, Waltham, MA, USA). Kinase inhibition effect of tested compounds was expressed as the percentage of remaining kinase activity relative to vehicle kinase reaction.

[6] = system: HepG-2; experiment: MTT dose-response anti-proliferative assay, HepG-2; format: cell-based; details: Homo sapiens, HepG2; HepG-2, MTT
Source text: as §3, §1, §2

[7] = target: T1, FLT3 (Homo sapiens, UniProt P36888); experiment: In-vitro FLT3 kinase enzyme inhibition assay (FLT3 Kinase Assay Kit); format: biochemical; details: FLT3 1.5 ng/µL, 45 min, mean ± SD, n = 3; read-out: FLT3 kinase inhibitory activity IC50
T1 construct: purchased BD Biosciences, San Diego, CA, USA
T1 sequence (P36888 27-993): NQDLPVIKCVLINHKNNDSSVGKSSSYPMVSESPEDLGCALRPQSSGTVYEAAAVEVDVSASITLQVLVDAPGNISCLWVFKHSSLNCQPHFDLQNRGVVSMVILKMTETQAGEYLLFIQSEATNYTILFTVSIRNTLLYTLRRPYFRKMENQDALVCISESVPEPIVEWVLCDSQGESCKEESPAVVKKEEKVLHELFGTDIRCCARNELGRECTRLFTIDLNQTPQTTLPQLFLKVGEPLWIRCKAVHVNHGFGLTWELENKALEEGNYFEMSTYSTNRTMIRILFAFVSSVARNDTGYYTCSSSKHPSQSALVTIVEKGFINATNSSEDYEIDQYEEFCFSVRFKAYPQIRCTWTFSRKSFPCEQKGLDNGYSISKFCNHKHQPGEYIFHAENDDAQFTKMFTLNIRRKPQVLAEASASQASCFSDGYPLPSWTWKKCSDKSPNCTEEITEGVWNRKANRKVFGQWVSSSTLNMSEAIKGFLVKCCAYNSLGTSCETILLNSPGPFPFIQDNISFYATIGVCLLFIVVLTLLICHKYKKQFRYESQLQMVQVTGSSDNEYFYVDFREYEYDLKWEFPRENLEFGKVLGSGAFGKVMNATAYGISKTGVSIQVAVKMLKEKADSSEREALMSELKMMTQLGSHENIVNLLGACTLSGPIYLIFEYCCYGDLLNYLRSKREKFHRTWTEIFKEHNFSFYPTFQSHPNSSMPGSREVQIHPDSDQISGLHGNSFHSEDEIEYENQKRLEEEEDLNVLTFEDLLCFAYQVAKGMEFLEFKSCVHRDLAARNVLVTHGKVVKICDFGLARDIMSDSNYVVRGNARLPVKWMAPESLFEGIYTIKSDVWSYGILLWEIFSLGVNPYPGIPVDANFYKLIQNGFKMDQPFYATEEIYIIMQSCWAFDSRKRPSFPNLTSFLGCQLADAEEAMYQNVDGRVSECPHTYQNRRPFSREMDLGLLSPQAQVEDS
Procedure: FLT3 Kinase Assay Kit (BD Biosciences, San Diego, CA, USA) was used to determine the inhibitory selectivity of the selected compounds towards the FLT3 enzyme. briefly, serial dilution of the selected compounds was incubated with FLT3 (1.5 ng/µL) for 45 min in a kinase reaction buffer. The FLT3 enzyme reaction was halted and measured by quantifying the amount of ADP produced during the enzyme reaction. Luminescence values were measured by a Varioskan™ LUX multimode microplate reader (Thermo Scientific, Waltham, MA, USA). IC50 was calculated with nonlinear regression compared with untreated reaction using Prism version 8.4.3 (GraphPad).

CC1=CC(=O)N(n2c(C)nc3sc4c(c3c2=O)CCCC4)C1=O [Compound 4, 3-Methyl-1-(2-methyl-4-oxo-5,6,7,8-tetrahydrobenzo[4,5]thieno[2,3-d]pyrimidin-3(4H)-yl)-1H-pyrrole-2,5-dione]
growth inhibition at concentration 100 µM ([1]; 100 µM, preliminary assay): weak growth inhibition
melting point: 125 to 127 °C

Cc1nc2sc3c(c2c(=O)n1NC(=S)Nc1ccccc1)CCCC3 [Compound 5, 1-(2-Methyl-4-oxo-5,6,7,8-tetrahydrobenzo[4,5]thieno[2,3-d]pyrimidin-3(4H)-yl)-3-phenylthiourea]
melting point: 138 to 140 °C

Cc1nc2sc3c(c2c(=O)n1N1C(=O)CN(c2ccccc2)C1=S)CCCC3 [Compound 6, 2-Methyl-3-(5-oxo-3-phenyl-2-thioxoimidazolidin-1-yl)-5,6,7,8-tetrahydrobenzo[4,5]thieno[2,3-d]pyrimidin-4(3H)-one]
melting point: 198 to 200 °C

Cc1nc2sc3c(c2c(=O)n1NCC(=O)Nc1cc(C(C)(C)C)no1)CCCC3 [Compound 7a, 2-(2-Methyl-4-oxo-5,6,7,8-tetrahydrobenzo[4,5]thieno[2,3-d]pyrimidin-3(4H)-ylamino)-N-(3-tert-butylisoxazol-5-yl)acetamide]
melting point: 120 to 122 °C

Cc1nc2sc3c(c2c(=O)n1NCC(=O)Nc1cc(C(C)(C)C)on1)CCCC3 [Compound 7b, 2-(2-Methyl-4-oxo-5,6,7,8-tetrahydrobenzo[4,5]thieno[2,3-d]pyrimidin-3(4H)-ylamino)-N-(5-tert-butylisoxazol-3-yl)acetamide]
melting point: 128 to 130 °C

Cc1nc2sc3c(c2c(=O)n1NC(=O)CCl)CCCC3 [Compound 8, 2-Chloro-N-(2-methyl-4-oxo-5,6,7,8-tetrahydrobenzo[4,5]thieno[2,3-d]pyrimidin-3(4H)-yl)acetamide]
IC50 [2]: 151 ± 20.2 µM
Selectivity Index (SI) (IC50 of CCD 841/IC50 of HT29) [2]: 75.5
IC50 ([3]; Homo sapiens, MCF7, MCF-7, MTT): 11 ± 0.8 µM
growth inhibitory activities against HT-29 cells (preliminary assay) [1]: moderate to significant
IC50 [4]: 2 ± 0.62 µM
kinase inhibition [5]: 49.6%
IC50 [6]: 13.5 ± 2.7 µM

Cc1nc2sc3c(c2c(=O)n1NC(=O)CNc1cc(C(C)(C)C)no1)CCCC3 [Compound 9a, 2-(3-Tert-butylisoxazol-5-ylamino)-N-(2-methyl-4-oxo-5,6,7,8-tetrahydrobenzo[4,5]thieno[2,3-d]pyrimidin-3(4H)-yl)acetamide]
IC50 [2]: 11.3 ± 5.6 µM
Selectivity Index (SI) (IC50 of CCD 841/IC50 of HT29) [2]: 9.4
IC50 ([3]; Homo sapiens, MCF7, MCF-7, MTT): 7.2 ± 1.9 µM
growth inhibitory activities against HT-29 cells (preliminary assay) [1]: moderate to significant
IC50 [4]: 1.21 ± 0.34 µM
IC50 [7]: 20.4 ± 2.8 µM
melting point: 89 to 92 °C
IC50 [6]: 6.62 ± 0.7 µM

Cc1nc2sc3c(c2c(=O)n1NC(=O)CNc1cc(C(C)(C)C)on1)CCCC3 [Compound 9b, 2-(5-Tert-butylisoxazol-3-ylamino)-N-(2-methyl-4-oxo-5,6,7,8-tetrahydrobenzo[4,5]thieno[2,3-d]pyrimidin-3(4H)-yl)acetamide]
IC50 [2]: 17.2 ± 1.4 µM
Selectivity Index (SI) (IC50 of CCD 841/IC50 of HT29) [2]: 20.2
IC50 ([3]; Homo sapiens, MCF7, MCF-7, MTT): 16.3 ± 2.3 µM
growth inhibitory activities against HT-29 cells (preliminary assay) [1]: moderate to significant
IC50 [4]: 0.85 ± 0.16 µM
IC50 [7]: 47.6 ± 9.3 µM
kinase inhibition [5]: 13.05%
melting point: 98 to 100 °C
IC50 [6]: 9.11 ± 0.3 µM

Cc1nc2sc3c(c2c(=O)n1NC(=O)CN1CCOCC1)CCCC3 [Compound 10a, N-(2-methyl-4-oxo-5,6,7,8-tetrahydrobenzo[4,5]thieno[2,3-d]pyrimidin-3(4H)-yl)-2-morpholinoacetamide]
IC50 ([3]; Homo sapiens, MCF7, MCF-7, MTT): 105 ± 36.4 µM
growth inhibitory activities against HT-29 cells (preliminary assay) [1]: moderate to significant
cytotoxic profile [1]: weak cytotoxic profile
IC50 [4]: 167 ± 8.15 µM
IC50 [7]: 17.8 ± 3.8 µM
kinase inhibition [5]: 75.1%
melting point: 222 to 225 °C
IC50 [6]: 188 ± 28.2 µM

Cc1nc2sc3c(c2c(=O)n1NC(=O)CN1CCN(C)CC1)CCCC3 [Compound 10b, N-(2-methyl-4-oxo-5,6,7,8-tetrahydrobenzo[4,5]thieno[2,3-d]pyrimidin-3(4H)-yl)-2-(4-methylpiperazin-1-yl)acetamide]
cytotoxic profile [1]: weak cytotoxic profile
melting point: 187 to 189 °C

CCOC(=O)c1c(NC(=S)Nc2ccccc2)sc2c1CCCC2 [Compound 11, Ethyl-2-(3-phenylthioureido)-5,6,7,8-tetrahydrobenzo[b]thiophene-3-carboxylate]
IC50 [2]: 178 ± 20.4 µM
Selectivity Index (SI) (IC50 of CCD 841/IC50 of HT29) [2]: 99.7
IC50 ([3]; Homo sapiens, MCF7, MCF-7, MTT): 7.53 ± 0.07 µM
IC50 ([3]; MCF-7, MTT): 7.537 ± 0.07 µM
growth inhibitory activities against HT-29 cells (preliminary assay) [1]: moderate to significant
IC50 [4]: 1.78 ± 0.6 µM
IC50 [7]: 40 ± 5.5 µM
kinase inhibition [5]: 79.2%
melting point: 170 to 172 °C
IC50 [6]: 16.4 ± 5.7 µM

Nn1c(Nc2ccccc2)nc2sc3c(c2c1=O)CCCC3 [Compound 12, 3-Amino-2-phenylamino-5,6,7,8-tetrahydrobenzo[4,5]thieno[2,3-d]pyrimidin-4(3H)-one]
IC50 [7]: 27.2 ± 5.6 µM
kinase inhibition [5]: 65.3%
melting point: 198 to 200 °C

COc1cccc2c1C(=O)c1c(O)c3c(c(O)c1C2=O)C[C@@](O)(C(=O)CO)C[C@@H]3O[C@H]1C[C@H](N)[C@H](O)[C@H](C)O1 [Dox, Doxorubicin, reference compound]
IC50 ([3]; Homo sapiens, MCF7, MCF-7, MTT): 8.43 ± 0.5 µM
IC50 [4]: 1.4 ± 1.16 µM
IC50 [6]: 13.9 ± 2.2 µM
